From PubChem BioAssay AID330 (DTP/NCI, 2004)
Values joined by “and” are separate entries in the source; they are usually repeats but may differ in a detail not shown here. Identical values can stand only once. Toxic doses and inconclusive results are not listed.

System: P388 leukemia ip, CD2F1 mice, survival T/C
Assay: NCI In Vivo Anticancer Drug Screen. Data for tumor model P388 Leukemia (intraperitoneal) in CD2F1 (CDF1) mice
Settings: endpoint: median survival time, higher = longer survival
Procedure, shortened: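 Mice carrying the transplanted tumor received test compound or vehicle. Survival was recorded in each group, and the value is the treated-group measurement divided by that of the vehicle-treated control group.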

[1] = dose: 50.0 mg/kg/injection, schedule: Q01DX009 (ip), vehicle: Klucel (hydroxypropylcellulose) (HPC)
[2] = dose: 100.0 mg/kg/injection, schedule: Q01DX009 (ip), vehicle: Klucel (hydroxypropylcellulose) (HPC)
[3] = dose: 200.0 mg/kg/injection, schedule: Q01DX009 (ip), vehicle: Klucel (hydroxypropylcellulose) (HPC)
[4] = dose: 50.0 mg/kg/injection, schedule: Q01DX005 (ip), vehicle: saline with Tween-80
[5] = dose: 100.0 mg/kg/injection, schedule: Q01DX005 (ip), vehicle: saline with Tween-80
[6] = dose: 200.0 mg/kg/injection, schedule: Q01DX005 (ip), vehicle: saline with Tween-80
[7] = dose: 3.13 mg/kg/injection, schedule: Q01DX009 (ip), vehicle: saline with Tween-80

CC(=O)O.[In]
T/C (dose: 0.1 mg/mouse/injection, schedule: Q01DX020 (oral), vehicle: saline with Tween-80): 100 % of control

CCOC(=O)/C=C(\C)NC1CC(=O)NC1=O (centres undefined)
T/C (dose: 50.0 mg/kg/injection, schedule: Q01DX009 (ip), vehicle: distilled water + alcohol): 104 % of control
T/C (dose: 100.0 mg/kg/injection, schedule: Q01DX009 (ip), vehicle: distilled water + alcohol): 108 % of control

COc1cc2oc3cc(=O)cc4oc(-c5ccccc5)cc(c2c2c1CCC(c1ccccc1)O2)c43 (centres undefined)
T/C (dose: 3.25 mg/kg/injection, schedule: Q01DX005 (ip), vehicle: Klucel + Tween-80): 98 % of control
T/C (dose: 6.5 mg/kg/injection, schedule: Q01DX005 (ip), vehicle: Klucel + Tween-80): 99 % of control
T/C (dose: 13.0 mg/kg/injection, schedule: Q01DX005 (ip), vehicle: Klucel + Tween-80): 103 % of control
T/C (dose: 26.0 mg/kg/injection, schedule: Q01DX005 (ip), vehicle: Klucel + Tween-80): 107 % of control

CC(C)CSc1nc2ccc(N=Cc3ccccc3O)cc2s1
T/C [1]: 94 % of control
T/C [2]: 92 % of control
T/C [3]: 89 % of control

c1ccc2c(Oc3c4ccccc4nc4ccccc34)c3ccccc3nc2c1
T/C [4]: 95 % of control
T/C [5]: 88 % of control
T/C [6]: 90 % of control

CC1=C/C(=N/N=c2\ccn(O)cc2C)C=CC1=N
T/C [7]: 100 % of control
T/C (dose: 6.25 mg/kg/injection, schedule: Q01DX009 (ip), vehicle: saline with Tween-80): 95 % of control
T/C (dose: 12.5 mg/kg/injection, schedule: Q01DX009 (ip), vehicle: saline with Tween-80): 104 % of control
T/C (dose: 25.0 mg/kg/injection, schedule: Q01DX009 (ip), vehicle: saline with Tween-80): 98 % of control

CCO/C(C)=C\C(=O)O
T/C [4]: 98 % of control
T/C [5]: 97 % of control
T/C [6]: 97 % of control

Clc1ccc(-c2nc(-c3cc4cc(Cl)ccc4o3)cs2)cc1
T/C [1]: 100 % of control
T/C [2]: 100 % of control
T/C [3]: 104 % of control

OCC(O)C1OC(c2ccco2)OC(CO)C1O (centres undefined)
T/C [4]: 102 % of control
T/C [5]: 105 % of control
T/C [6]: 105 % of control

CC(=O)OC1C(CO)OC2C1Oc1nc(=N)c(F)cn12 (centres undefined)
T/C (dose: 0.39 mg/kg/injection, schedule: Q01DX009 (ip), vehicle: saline with Tween-80): 116 % of control
T/C (dose: 1.56 mg/kg/injection, schedule: Q01DX009 (ip), vehicle: saline with Tween-80): 160 % of control
T/C [7]: 91 % of control
T/C (dose: 3.13 mg/kg/injection, schedule: Q01DX009 (ip), vehicle: saline): 101 % of control
T/C (dose: 6.25 mg/kg/injection, schedule: Q01DX009 (ip), vehicle: saline): 87 % of control and 88 % of control and 93 % of control
T/C (dose: 12.5 mg/kg/injection, schedule: Q01DX009 (ip), vehicle: saline): 117 % of control
T/C (dose: 50.0 mg/kg/injection, schedule: Q01DX009 (ip), vehicle: saline): 161 % of control

CC1=C(C)C(=O)O[C@@H]([C@](C)(O)[C@]2(O)CC[C@@]3(O)[C@@H]4C[C@H]5O[C@]56CC=CC(=O)[C@]6(C)[C@H]4CC[C@]23C)C1
T/C (dose: 12.5 mg/kg/injection, schedule: Q01DX009 (ip), vehicle: Klucel (hydroxypropylcellulose) (HPC)): 109 % of control and 110 % of control
T/C (dose: 12.5 mg/kg/injection, schedule: Q04DX003 (ip), vehicle: Klucel (hydroxypropylcellulose) (HPC)): 122 % of control
T/C (dose: 25.0 mg/kg/injection, schedule: Q01DX009 (ip), vehicle: Klucel (hydroxypropylcellulose) (HPC)): 107 % of control and 124 % of control
T/C [1]: 100 % of control
T/C (dose: 50.0 mg/kg/injection, schedule: Q04DX003 (ip), vehicle: Klucel (hydroxypropylcellulose) (HPC)): 124 % of control

NC(=S)N1N=C(c2cccc([N+](=O)[O-])c2)CCC1=O
T/C (dose: 25.0 mg/kg/injection, schedule: Q04DX003 (ip), vehicle: saline with Tween-80): 100 % of control
T/C (dose: 50.0 mg/kg/injection, schedule: Q04DX003 (ip), vehicle: saline with Tween-80): 103 % of control
T/C (dose: 100.0 mg/kg/injection, schedule: Q04DX003 (ip), vehicle: saline with Tween-80): 100 % of control
T/C (dose: 200.0 mg/kg/injection, schedule: Q04DX003 (ip), vehicle: saline with Tween-80): 101 % of control

C=C(C)CN1C(=O)C(C)S/C1=N/N=C1/SCC(=O)N1C (centres undefined)
T/C (dose: 62.5 mg/kg/injection, schedule: Q01DX009 (ip), vehicle: saline): 99 % of control
T/C (dose: 125.0 mg/kg/injection, schedule: Q01DX009 (ip), vehicle: saline): 98 % of control

CCN(CC)CCCNc1cccc2c(SCc3ccccc3)ccnc12
T/C [4]: 112 % of control
T/C [5]: 102 % of control

CCCN=C(c1ccccc1C=O)c1c2ccccc2cn1CCC
T/C (dose: 7.5 mg/kg/injection, schedule: Q01DX005 (ip), vehicle: saline + Tween-80 + alcohol): 114 % of control
T/C (dose: 15.0 mg/kg/injection, schedule: Q01DX005 (ip), vehicle: saline + Tween-80 + alcohol): 124 % of control
T/C (dose: 30.0 mg/kg/injection, schedule: Q01DX005 (ip), vehicle: saline + Tween-80 + alcohol): 119 % of control
